Experimental findings from patent publication US10370333B2 (Sanford Burnham Prebys Medical Discovery Institute, priority 2012, dated 2019) are described below.

This assay has as its target TNAP (Homo sapiens (Human), UniProt P05186). Kind of assay: TNAP (PPi) inhibition assay, pyrophosphate as substrate. Type of assay: biochemical. On the procedure: Expression plasmids containing a secreted epitope-tagged TNAP were transfected into COS-1 cells for transient expression. The medium was replaced with Opti-MEM 24 h later and serum-free media containing secreted proteins was collected 60 hours after electroporation. The medium was dialyzed against TBS containing 1 mM MgCl2 and […] (to remove phosphate) and filtered through a […] cellulose acetate filter.
To determine the inhibition selectivity for inhibitor candidates, human TNAP, PLAP or IAP were added to microtiter plates followed by addition of the substrate pNPP (0.5 mM) and activity was measured in 1 M DEA-HCl buffer, pH 9.8 or in 1 M Tris-HCl buffer, pH 7.5, containing 1 mM MgCl2 and 20 μM ZnCl2, in the presence of potential inhibitors (0-30 μM). TNAP, PLAP and IAP activities were adjusted to an approximate λA405 nm, equivalent to 1, measured after 30 min. Residual AP activity in the presence of inhibitors was expressed as percentage of the control activity. To investigate the mechanism of inhibition, double reciprocal plots of enzyme activity (expressed as mA405 nm min−1) vs. substrate concentration were constructed, in the presence of various concentrations of added inhibitors (0-30 μM). The y-axis intercepts of the 1/v vs. 1/[S] plots, were then plotted vs. [I] to graphically extract Ki values as the x-intercept in this plot. […] Inhibitors were further tested and sorted based on their kinetic properties at pH 7.4 using PPi, the relevant natural substrate of TNAP. […] Amounts of released phosphate were measured using the Biomol Green Reagent (Biomol Research Laboratories, Inc., Plymouth Meeting, Pa.).
As a reminder, the IC50 is the point on the concentration scale where inhibition reaches its midpoint. `COc1cc(Cl)c(Br)cc1S(=O)(=O)Nc1cccnc1` had an IC50 of less than 100 nM. To `COc1ccc(Br)cc1S(=O)(=O)Nc1cscn1` belongs greater than 1000 nM. To `COc1ccc(OC)c(S(=O)(=O)Nc2cscn2)c1` belongs greater than 1000 nM; to `COc1ccc(Cl)cc1S(=O)(=O)Nc1cncc(-c2ccccc2C(F)(F)F)c1`, 100 to 1000 nM. To `COc1ccc(Cl)cc1S(=O)(=O)Nc1cncc(-c2ccc(O)cc2)c1` belongs less than 100 nM; to `COc1ccc(OC)c(S(=O)(=O)Nc2ccc(Nc3ccccc3)nc2)c1`, greater than 1000 nM.

`O=C(O)c1cncc(NS(=O)(=O)c2cc(Cl)ccc2OC(F)(F)F)c1` had an IC50 of 100 to 1000 nM. For `COc1ccc(-c2ccccc2)cc1S(=O)(=O)Nc1cccnc1` [Example I-7, 4-Methoxy-biphenyl-3-sulfonic acid pyridin-3-ylamide], the IC50 was in the range of 100 to 1000 nM.

On to `COc1ccc(-c2ccsc2)cc1S(=O)(=O)Nc1cccnc1` [Example I-8, 2-Methoxy-N-pyridin-3-yl-5-thiophen-3-yl-benzenesulfonamide], for which the IC50 was in the range of 100 to 1000 nM.

In turn, `COc1ccc(-c2ccoc2)cc1S(=O)(=O)Nc1cccnc1` [Example I-9, 5-Furan-3-yl-2-methoxy-N-pyridin-3-yl-benzenesulfonamide] came in with an IC50 of 100 to 1000 nM. As for `COc1ccc(-c2ccncc2)cc1S(=O)(=O)Nc1cccnc1` [Example I-10, 2-Methoxy-5-pyridin-4-yl-N-pyridin-3-yl-benzenesulfonamide], the IC50 is greater than 1000 nM. `COc1ccc(S(=O)(=O)Nc2cccnc2)cc1Cl` [Example I-12, 3-Chloro-4-methoxy-N-pyridin-3-yl-benzenesulfonamide] came in with an IC50 greater than 1000 nM.

In turn, `COc1c(Cl)cccc1S(=O)(=O)Nc1cccnc1` [Example I-13, 3-Chloro-2-methoxy-N-pyridin-3-yl-benzenesulfonamide] had a half-inhibitory concentration (IC50) greater than 1000 nM. In the case of `CNC(=O)c1ccc(OC)c(S(=O)(=O)Nc2cccnc2)c1` [Example I-16, 4-Methoxy-N-methyl-3-(pyridin-3-ylsulfamoyl)-benzamide], the IC50 is greater than 1000 nM.

As to `CCNC(=O)c1ccc(OC)c(S(=O)(=O)Nc2cccnc2)c1` [Example I-17, N-Ethyl-4-methoxy-3-(pyridin-3-ylsulfamoyl)-benzamide], the IC50 was greater than 1000 nM.

Consider `CCCNC(=O)c1ccc(OC)c(S(=O)(=O)Nc2cccnc2)c1` [Example I-18, 4-Methoxy-N-propyl-3-(pyridin-3-ylsulfamoyl)-benzamide], for which the IC50 was greater than 1000 nM. The compound `COc1ccc(C(=O)Nc2ccccc2)cc1S(=O)(=O)Nc1cccnc1` [Example I-19, 4-Methoxy-N-phenyl-3-(pyridin-3-ylsulfamoyl)-benzamide] returned an IC50 greater than 1000 nM.

As to `COc1ccc(C(=O)NC2CCCCC2)cc1S(=O)(=O)Nc1cccnc1` [Example I-20, N-Cyclohexyl-4-methoxy-3-(pyridin-3-ylsulfamoyl)-benzamide], the IC50 was greater than 1000 nM. As for `COCCNC(=O)c1ccc(OC)c(S(=O)(=O)Nc2cccnc2)c1` [Example I-21, 4-Methoxy-N-(2-methoxy-ethyl)-3-(pyridin-3-ylsulfamoyl)-benzamide], the IC50 was greater than 1000 nM. As for `COc1ccc(C(=O)N2CCN(C)CC2)cc1S(=O)(=O)Nc1cccnc1` [Example I-22, 2-Methoxy-5-(4-methyl-piperazine-1-carbonyl)-N-pyridin-3-yl-benzenesulfonamide], the IC50 is greater than 1000 nM.

For the compound `COc1ccc(C(=O)N2CCOCC2)cc1S(=O)(=O)Nc1cccnc1` [Example I-23, 2-Methoxy-5-(morpholine-4-carbonyl)-N-pyridin-3-yl-benzenesulfonamide], the IC50 was greater than 1000 nM. Regarding `COc1cc(C)ccc1S(=O)(=O)Nc1cnc2ccccc2c1` [Example II-3, 2-Methoxy-4-methyl-N-quinolin-3-yl-benzenesulfonamide], the concentration for half-maximal inhibition (IC50) was less than 100 nM. Next, `COc1ccc(S(=O)(=O)Nc2cnc3ccccc3c2)c(OC)c1` [Example II-4, 2,4-Dimethoxy-N-quinolin-3-yl-benzenesulfonamide]: greater than 1000 nM; `COc1ccc(-c2ccccc2)cc1S(=O)(=O)Nc1cnc2ccccc2c1` [Example II-6, 4-Methoxy-biphenyl-3-sulfonic acid quinolin-3-ylamide]: 100 to 1000 nM; `COc1ccc(-c2ccoc2)cc1S(=O)(=O)Nc1cnc2ccccc2c1` [Example II-7, 5-Furan-3-yl-2-methoxy-N-quinolin-3-yl-benzenesulfonamide]: 100 to 1000 nM.

Compound `COc1ccc(-c2ccsc2)cc1S(=O)(=O)Nc1cnc2ccccc2c1` [Example II-8, 2-Methoxy-N-quinolin-3-yl-5-thiophen-3-yl-benzenesulfonamide] came in with an IC50 greater than 1000 nM. Take `COc1ccc(-c2ccncc2)cc1S(=O)(=O)Nc1cnc2ccccc2c1` [Example II-9, 2-Methoxy-5-pyridin-4-yl-N-quinolin-3-yl-benzenesulfonamide]: the IC50 was in the range of 100 to 1000 nM.

In turn, `COc1cc(Cl)ccc1S(=O)(=O)Nc1cnc2ccccc2c1` [Example II-10, 4-Chloro-2-methoxy-N-quinolin-3-yl-benzenesulfonamide] gave an IC50 of less than 100 nM. For `COc1ccc(S(=O)(=O)Nc2cnc3ccccc3c2)cc1Cl` [Example II-11, 3-Chloro-4-methoxy-N-quinolin-3-yl-benzenesulfonamide], the IC50 was greater than 1000 nM. Next, `COc1c(Cl)cccc1S(=O)(=O)Nc1cnc2ccccc2c1` [Example II-12, 3-Chloro-2-methoxy-N-quinolin-3-yl-benzenesulfonamide]: greater than 1000 nM; `COC(=O)c1ccc(OC)c(S(=O)(=O)Nc2cnc3ccccc3c2)c1` [Example II-13, Methyl 4-methoxy-3-(N-(quinolin-3-yl)sulfamoyl)benzoate]: less than 100 nM. To `COc1ccc(C(N)=O)cc1S(=O)(=O)Nc1cnc2ccccc2c1` [Example II-14, 4-Methoxy-3-(quinolin-3-ylsulfamoyl)-benzamide] belongs 100 to 1000 nM. Next, `CNC(=O)c1ccc(OC)c(S(=O)(=O)Nc2cnc3ccccc3c2)c1` [Example II-15, 4-Methoxy-N-methyl-3-(quinolin-3-ylsulfamoyl)-benzamide]: less than 100 nM; `CCNC(=O)c1ccc(OC)c(S(=O)(=O)Nc2cnc3ccccc3c2)c1` [Example II-16, N-Ethyl-4-methoxy-3-(quinolin-3-ylsulfamoyl)-benzamide]: 100 to 1000 nM; `CCCNC(=O)c1ccc(OC)c(S(=O)(=O)Nc2cnc3ccccc3c2)c1` [Example II-17, 4-Methoxy-N-propyl-3-(quinolin-3-ylsulfamoyl)-benzamide]: 100 to 1000 nM. Regarding `COc1ccc(C(=O)Nc2ccccc2)cc1S(=O)(=O)Nc1cnc2ccccc2c1` [Example II-18, 4-Methoxy-N-phenyl-3-(quinolin-3-ylsulfamoyl)-benzamide], the half-inhibitory concentration (IC50) is greater than 1000 nM. In the case of `COc1ccc(C(=O)NC2CCCCC2)cc1S(=O)(=O)Nc1cnc2ccccc2c1` [Example II-19, N-Cyclohexyl-4-methoxy-3-(quinolin-3-ylsulfamoyl)-benzamide], the IC50 was greater than 1000 nM. Next, `COCCNC(=O)c1ccc(OC)c(S(=O)(=O)Nc2cnc3ccccc3c2)c1` [Example II-20, 4-Methoxy-N-(2-methoxy-ethyl)-3-(quinolin-3-ylsulfamoyl)-benzamide]: 100 to 1000 nM; `COc1ccc(C(=O)NCCN(C)C)cc1S(=O)(=O)Nc1cnc2ccccc2c1` [Example II-21, N-(2-Dimethylamino-ethyl)-4-methoxy-3-(quinolin-3-ylsulfamoyl)-benzamide]: 100 to 1000 nM.

`COc1ccc(C(=O)N2CCN(C)CC2)cc1S(=O)(=O)Nc1cnc2ccccc2c1` [Example II-22, 2-Methoxy-5-(4-methyl-piperazine-1-carbonyl)-N-quinolin-3-yl-benzenesulfonamide] registered an IC50 greater than 1000 nM.

In turn, `COc1ccc(C(=O)N2CCOCC2)cc1S(=O)(=O)Nc1cnc2ccccc2c1` [Example II-23, 2-Methoxy-5-(morpholine-4-carbonyl)-N-quinolin-3-yl-benzenesulfonamide] yielded a half-inhibitory concentration (IC50) of 100 to 1000 nM. With `COc1ccc(-c2cncc(NS(=O)(=O)c3cc(OC)ccc3OC)c2)cc1` [Example III-1], the IC50 is less than 100 nM. Next, `COc1ccc(-c2cncc(NS(=O)(=O)c3cc(Br)ccc3OC)c2)cc1` [Example III-2, 5-Bromo-2-methoxy-N-[5-(4-methoxy-phenyl)-pyridin-3-yl]-benzenesulfonamide]: 100 to 1000 nM; `COc1ccc(OC)c(S(=O)(=O)Nc2cncc(-c3ccc(OCc4ccccc4)cc3)c2)c1` [Example III-4, N-(5-(4-(Benzyloxy)phenyl)pyridin-3-yl)-2,5-dimethoxybenzenesulfonamide]: 100 to 1000 nM; `COc1ccc(Br)cc1S(=O)(=O)Nc1cncc(-c2ccc(OCc3ccccc3)cc2)c1` [Example III-5, N-(5-(4-(Benzyloxy)phenyl)pyridin-3-yl)-5-bromo-2-methoxybenzenesulfonamide]: 100 to 1000 nM.

`COc1ccc(Cl)cc1S(=O)(=O)Nc1cncc(-c2ccc(OCc3ccccc3)cc2)c1` [Example III-6, N-(5-(4-(benzyloxy)phenyl)pyridin-3-yl)-5-chloro-2-methoxybenzenesulfonamide]: the IC50 lay within 100 to 1000 nM.
